# Experimental data taken from patent US9630947B2, “Therapeutic compounds and related methods of use” (OTSUKA PHARMACEUTICAL CO., LTD., priority 2009, dated 2017).
# Target: T1, purified STEP46 enzyme (Homo sapiens, UniProt P54829)
# T1 sequence (P54829 1-565): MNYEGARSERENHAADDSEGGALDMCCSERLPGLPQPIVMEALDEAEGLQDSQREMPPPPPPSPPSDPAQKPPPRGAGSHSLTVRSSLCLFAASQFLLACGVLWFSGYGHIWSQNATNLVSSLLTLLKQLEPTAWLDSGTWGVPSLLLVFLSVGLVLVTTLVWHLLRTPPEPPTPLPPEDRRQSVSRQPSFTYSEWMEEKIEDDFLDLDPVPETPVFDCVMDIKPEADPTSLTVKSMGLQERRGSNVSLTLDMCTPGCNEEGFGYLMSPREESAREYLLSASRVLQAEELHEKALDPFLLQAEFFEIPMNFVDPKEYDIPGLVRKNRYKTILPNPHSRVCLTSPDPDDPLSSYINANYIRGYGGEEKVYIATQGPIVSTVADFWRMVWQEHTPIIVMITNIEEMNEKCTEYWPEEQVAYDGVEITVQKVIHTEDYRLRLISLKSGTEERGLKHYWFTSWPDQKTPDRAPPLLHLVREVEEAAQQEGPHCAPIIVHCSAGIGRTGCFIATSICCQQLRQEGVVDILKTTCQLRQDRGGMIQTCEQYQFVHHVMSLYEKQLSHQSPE
# Assay: STEP46 biochemical assay (DiFMUP fluorescence phosphatase assay)
# Conditions: DiFMUP 10 μM, read-out: STEP IC50
# Method: STEP46 Biochemical Assays
# Serial dilutions of compounds were performed in 100% DMSO and 1 uL of compounds were dispensed into 384-well black polystyrene plates (Corning, NY). Compounds were incubated with 24 uL of buffer containing 50 mM Hepes, 1 mM DTT, 0.02% Brij35, 1 ng/well purified STEP46 enzyme for 30 min at room temperature. The reaction was initiated by addition of 25 uL of DiFMUP (6, 8-difluoro-4-methylumbelliferyl phosphate) (InVitrogen, CA) with a final concentration of 10 μM and incubated at 27° C. for 90 min. Final DMSO concentration is 2%. Plates were read with florescence intensity at excitation/emission of 360/460 nm using a PheraStar plate reader (BMG Labtech, NC).
# Data were expressed as percentage (%) inhibition of enzyme activity. 0% inhibition is defined as the RFUs (relative fluorescence units) in the absence of compounds and 100% inhibition is defined as RFUs in the absence of STEP46 enzyme. IC50 values of compounds with inhibitory activity against STEP46 were determined by GraphPad Prism (version 4.03) using four parameter logistic equation. Some compounds act as activators. For compounds showing STEP46 enzymatic activation, data are represented as percentage of inhibition but with negative values at three representative concentrations (25, 50 and 100 uM).
row,SMILES,IC50 [µM]
1,CNc1nc(-c2cccnc2)nc2ccc(-c3cccnc3OC)cc12 [Compound 1330],> 10
2,CNc1nc(-c2cccnc2)nc2cc(-c3ccccc3F)c(C)cc12 [Compound 1403],> 10
3,CNc1nc(-c2cccnc2)nc2cc(-c3ccccc3)ccc12 [Compound 1348],> 10
4,CNc1c(-c2ccc(C#N)cc2)ccc2nc(-c3cccnc3)nc(C)c12 [Compound 1424],> 10
5,CNc1nc(-c2cccnc2)nc2ccc(-c3cccc(F)c3F)c(C)c12 [Compound 1285],> 10
6,CNc1nc(-c2cccnc2)nc2cc(-c3ccccc3Cl)ccc12 [Compound 1352],> 10
7,Nc1nc(-c2cccnc2)nc2ccc(-c3ccccc3Cl)cc12 [Compound 1328],> 10
8,CNc1nc(-c2cccnc2)nc2ccc(-c3ccc(F)cc3F)c(C)c12 [Compound 1286],1 to 10
9,N#Cc1ccc(-c2ccc3c(Nc4ccc(F)c(Cl)c4)nc(-c4cccnc4)nc3c2)cc1 [Compound 690],1 to 10
10,CNc1nc(-c2cccnc2)nc2cc(-c3ccc(C#N)cc3)ccc12 [Compound 1365],1 to 10
11,CN(C)c1nc(-c2cccnc2)nc2ccc(-c3cccc(F)c3)cc12 [Compound 1324],1 to 10
12,COc1cccc(-c2ccc3nc(-c4cccnc4)nc(Oc4ccccc4C(N)=O)c3c2)c1 [Compound 393],1 to 10
13,CCOc1ccc2nc(-c3cccnc3)nc(Nc3nc(-c4ccc(F)cc4F)cs3)c2c1 [Compound 472],1 to 10
14,COc1ccc2nc(-c3cccnc3)nc(Nc3nc(C4CCCCC4)cs3)c2c1 [Compound 433],1 to 10
15,FC(F)Oc1cc(Cl)cc(Nc2nc(-c3ccnnc3)nc3ccccc23)c1 [Compound 1212],1 to 10
16,COc1ccc2nc(-c3cccnc3)nc(Nc3nc(-c4ccc(F)cc4F)cs3)c2c1 [Compound 446],1 to 10
17,CCOc1ccc2nc(-c3ccnnc3)nc(Nc3cccc(OC(F)F)c3)c2c1 [Compound 1167],1 to 10
18,CNc1nc(-c2cccnc2)nc2cc(-c3cc(F)ccc3F)c(C)cc12 [Compound 1406],1 to 10
19,Fc1ccc(Nc2nc(-c3cccnc3)nc3cc(-c4cccnc4)ccc23)cc1Cl [Compound 677],> 10
20,CNc1nc(-c2cccnc2)nc2ccc(-c3ccc(F)c(F)c3F)cc12 [Compound 1375],1 to 10
21,COc1ccc2nc(-c3cccnc3)nc(Nc3ccc4ccsc4c3)c2c1 [Compound 309],1 to 10
22,CNc1nc(-c2cccnc2)nc2cc(-c3cc(F)ccc3F)ccc12 [Compound 1601],1 to 10
23,COc1ccc2nc(-c3cccnc3)nc(Nc3nc(-c4cccc(Br)c4)cs3)c2c1 [Compound 447],1 to 10
24,Fc1cccc(-c2ccc3nc(-c4cccnc4)nc(NC4CCCCC4)c3c2)c1F [Compound 1516],> 10
25,CNc1nc(-c2cccnc2)nc2cc(-c3ccccc3OC)c(C)cc12 [Compound 1411],> 10
26,COc1cc(-c2ccc3nc(-c4cccnc4)nc(Nc4ccc(F)c(Cl)c4)c3c2)cc(C(F)(F)F)c1 [Compound 664],1 to 10
27,Fc1ccc(Nc2nc(-c3cccnc3)nc3ccc(-c4ccccc4)cc23)cc1Cl [Compound 631],1 to 10
28,CNc1nc(-c2cccnc2)nc2c(C)c(-c3cccc(OC)c3)ccc12 [Compound 1456],1 to 10
29,COc1ccc2nc(-c3cccnc3)nc(Nc3cc(-c4ccc(Cl)cc4)nn3C)c2c1 [Compound 403],1 to 10
30,COc1ccc2nc(-c3cccnc3)nc(Nc3ccccc3C(=O)NCc3occc3C)c2c1 [Compound 901],1 to 10

# Second part, the compound after the results:
row,IC50 [µM],SMILES
1,< 1,COc1ncc(-c2ccc3nc(-c4cccnc4)nc(Nc4ccc(F)c(Cl)c4)c3c2)c(OC)n1 [Compound 653]
2,1 to 10,COc1ccc2nc(-c3cccnc3)nc(Nc3ccc(C)c(C)c3)c2c1 [Compound 923]
3,< 1,CN(C)c1ccc(-c2ccc3nc(-c4cccnc4)nc(Nc4ccc(F)c(Cl)c4)c3c2)cc1 [Compound 668]
4,1 to 10,COc1ccc2nc(-c3cccnc3)nc(Oc3ccc4[nH]c(=O)ccc4c3)c2c1 [Compound 346]
5,< 1,COc1ccc2nc(-c3cccnc3)nc(Nc3c(F)cccc3Cl)c2c1 [Compound 934]
6,1 to 10,CNc1nc(-c2cccnc2)nc2cc(-c3ccccc3C#N)ccc12 [Compound 1363]
7,< 1,NC(=O)c1cccc(-c2ccc3c(Nc4ccc(F)c(Cl)c4)nc(-c4cccnc4)nc3c2)c1 [Compound 691]
8,1 to 10,CNc1nc(-c2cccnc2)nc2ccc(-c3csc4ccccc34)cc12 [Compound 1339]
9,1 to 10,CNc1nc(-c2cccnc2)nc2cc(-c3ccc(F)c(F)c3)c(C)cc12 [Compound 1407]
10,1 to 10,COc1ccc2nc(-c3cccnc3)nc(Nc3ccc4oc(=O)n(C)c4c3)c2c1 [Compound 318]
11,1 to 10,O=c1ccc2ccc(Nc3nc(-c4cccnc4)nc4ccc(-c5cccnc5)cc34)cc2[nH]1 [Compound 352]
12,< 1,CN(C)c1cccc(-c2ccc3c(Nc4ccc(F)c(Cl)c4)nc(-c4cccnc4)nc3c2)c1 [Compound 693]
13,< 1,COc1ccc2nc(-c3ccnnc3)nc(Nc3cccc(C#N)c3)c2c1 [Compound 1187]
14,< 1,COc1ccc2nc(-c3cccnc3)nc(Nc3nc(-c4cccc(F)c4F)cs3)c2c1 [Compound 452]
15,< 1,COc1ccc2nc(-c3cccnc3)nc(Nc3nc(-c4c(F)cccc4F)cs3)c2c1 [Compound 459]
16,1 to 10,COc1cccc(-c2ccc3nc(-c4cccnc4)nc(Oc4ccc(F)c(Cl)c4)c3c2)c1 [Compound 390]
17,< 1,CN(C)c1cccc(-c2ccc3nc(-c4cccnc4)nc(Nc4ccc(F)c(Cl)c4)c3c2)c1 [Compound 643]
18,1 to 10,N#Cc1cccc(Nc2nc(-c3cnccn3)nc3cc(Cl)ccc23)c1 [Compound 1144]
19,1 to 10,Fc1ccc(-c2ccc3nc(-c4cccnc4)nc(Nc4ccc(F)c(Cl)c4)c3c2)cc1 [Compound 638]
20,< 1,COc1cncc(-c2ccc3nc(-c4cccnc4)nc(Nc4ccc(F)c(Cl)c4)c3c2)c1 [Compound 660]

row,IC50 [µM],SMILES
1,1 to 10,COc1ccc2nc(-c3cccnc3)nc(Nc3ccc4sc(=O)[nH]c4c3)c2c1 [Compound 326]
2,1 to 10,COc1ccc2nc(-c3cccnc3)nc(Nc3ccc(-c4ccc(Cl)cc4)cc3)c2c1 [Compound 424]
3,1 to 10,COc1ccc2nc(-c3cccnc3)nc(Nc3ccc4sc(=O)n(C)c4c3)c2c1 [Compound 327]
4,< 1,COc1ccc2nc(-c3cccnc3)nc(Nc3nc(-c4cc(F)ccc4F)cs3)c2c1 [Compound 458]
5,< 1,COc1ccc2nc(-c3cccnc3)nc(Nc3nc(-c4ccccc4)cs3)c2c1 [Compound 416]
6,1 to 10,COc1ccc2nc(-c3cnccn3)nc(Nc3ccc(F)c(Cl)c3)c2c1 [Compound 1191]
7,1 to 10,O=[N+]([O-])c1ccccc1-c1ccc2nc(-c3cccnc3)nc(Nc3ccc(F)c(Cl)c3)c2c1 [Compound 640]
8,1 to 10,NC(=O)c1ccccc1Nc1nc(-c2cccnc2)nc2cc(-c3ccc(F)cc3)ccc12 [Compound 701]
9,< 1,NC(=O)c1ccc(-c2ccc3nc(-c4cccnc4)nc(Nc4ccc(F)c(Cl)c4)c3c2)cc1 [Compound 656]
10,1 to 10,CCOc1ccc2nc(-c3cccnc3)nc(Nc3ccc4ccsc4c3)c2c1 [Compound 315]
11,< 1,NC(=O)c1ccccc1Nc1nc(-c2cccnc2)nc2cc(-c3ccc(F)c(F)c3)ccc12 [Compound 703]
12,1 to 10,NC(=O)c1ccccc1Nc1nc(-c2cnccn2)nc2ccc(Cl)cc12 [Compound 1157]
13,< 1,COc1ccc2nc(-c3cccnc3)nc(Nc3nc(-c4ccc(C(F)(F)F)cc4)cs3)c2c1 [Compound 443]
14,< 1,Fc1ccc(-c2ccc3c(Nc4ccc(F)c(Cl)c4)nc(-c4cccnc4)nc3c2)c(F)c1 [Compound 698]
15,< 1,COc1ccc2nc(-c3cccnc3)nc(Nc3nc(-c4ccccc4Br)cs3)c2c1 [Compound 451]
16,< 1,COc1ccc2nc(-c3cccnc3)nc(Nc3nc(-c4ccc(Cl)cc4)cs3)c2c1 [Compound 399]
17,< 1,NC(=O)c1ccccc1Nc1nc(-c2cccnc2)nc2cc(-c3cc(F)ccc3F)ccc12 [Compound 706]
18,< 1,COc1ccc2nc(-c3cccnc3)nc(Nc3nc(-c4cccc(C#N)c4)cs3)c2c1 [Compound 453]
19,< 1,CCOc1ccc2nc(-c3cccnc3)nc(Nc3nc(-c4ccc(F)c(F)c4)cs3)c2c1 [Compound 468]
